Results from PMC9973256, “A Cysteine Pair Controls Flavin Reduction by Extracellular Cytochromes during Anoxic/Oxic Environmental Transitions” (mBio, 2023).

Assays:
Format in all cases: binding
MtrCsol (soluble MtrC) [1] = biological target: T1, MtrCsol (soluble MtrC) (Shewanella oneidensis, UniProt Q8EG34); assay: copurification through anaerobic PD10 size exclusion column, flavin fluorescence; conditions: 1 mM DTT (disulfide reduced), no copurification without DTT or with 50 uM dithionite only
T1 construct: soluble form; lipid anchor site and signal peptide replaced by MtrB signal peptide; C-terminal StrepTactin tag; expressed in S. oneidensis delta-mtrC (LS661); decaheme
T1 sequence (Q8EG34 26-671): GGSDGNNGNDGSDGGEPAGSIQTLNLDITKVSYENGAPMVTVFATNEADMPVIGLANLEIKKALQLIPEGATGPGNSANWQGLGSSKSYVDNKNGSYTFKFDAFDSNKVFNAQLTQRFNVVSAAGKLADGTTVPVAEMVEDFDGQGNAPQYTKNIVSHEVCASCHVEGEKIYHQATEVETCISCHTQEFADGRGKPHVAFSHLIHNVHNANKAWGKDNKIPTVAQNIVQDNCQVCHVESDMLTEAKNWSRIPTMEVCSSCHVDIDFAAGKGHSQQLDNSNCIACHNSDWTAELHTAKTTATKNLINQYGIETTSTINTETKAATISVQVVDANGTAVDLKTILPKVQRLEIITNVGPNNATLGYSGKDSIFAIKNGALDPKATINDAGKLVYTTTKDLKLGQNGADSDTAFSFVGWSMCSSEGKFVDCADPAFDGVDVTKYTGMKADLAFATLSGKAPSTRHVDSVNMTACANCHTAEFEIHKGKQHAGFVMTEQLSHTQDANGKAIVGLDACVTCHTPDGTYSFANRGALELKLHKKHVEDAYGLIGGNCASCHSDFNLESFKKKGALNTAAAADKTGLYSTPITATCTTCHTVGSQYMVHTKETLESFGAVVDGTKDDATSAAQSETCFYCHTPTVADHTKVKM

MtrCsol (soluble MtrC) [2] = biological target: T2, MtrCsol (soluble MtrC) (Shewanella oneidensis, UniProt Q8EG34, C453S); assay: […] NMR titration of FMN; conditions: oxidized protein; 20 mM potassium phosphate pH 7.6, 100 mM KCl, 25 °C; slow exchange
T2 construct: soluble form; lipid anchor site and signal peptide replaced by MtrB signal peptide; C-terminal StrepTactin tag; expressed in S. oneidensis delta-mtrC (LS661); decaheme

MtrCsol (soluble MtrC) [3] = biological target: T3, MtrCsol (soluble MtrC) (Shewanella oneidensis, UniProt Q8EG34, C453A); assay: copurification through anaerobic PD10 size exclusion column, flavin fluorescence; conditions: 50 uM sodium dithionite (reduced FMN and heme), also with 1 mM DTT, no copurification without reductant
T3 construct: soluble form; lipid anchor site and signal peptide replaced by MtrB signal peptide; C-terminal StrepTactin tag; expressed in S. oneidensis delta-mtrC (LS661); decaheme
T3 sequence (Q8EG34 entry or part of it C453A): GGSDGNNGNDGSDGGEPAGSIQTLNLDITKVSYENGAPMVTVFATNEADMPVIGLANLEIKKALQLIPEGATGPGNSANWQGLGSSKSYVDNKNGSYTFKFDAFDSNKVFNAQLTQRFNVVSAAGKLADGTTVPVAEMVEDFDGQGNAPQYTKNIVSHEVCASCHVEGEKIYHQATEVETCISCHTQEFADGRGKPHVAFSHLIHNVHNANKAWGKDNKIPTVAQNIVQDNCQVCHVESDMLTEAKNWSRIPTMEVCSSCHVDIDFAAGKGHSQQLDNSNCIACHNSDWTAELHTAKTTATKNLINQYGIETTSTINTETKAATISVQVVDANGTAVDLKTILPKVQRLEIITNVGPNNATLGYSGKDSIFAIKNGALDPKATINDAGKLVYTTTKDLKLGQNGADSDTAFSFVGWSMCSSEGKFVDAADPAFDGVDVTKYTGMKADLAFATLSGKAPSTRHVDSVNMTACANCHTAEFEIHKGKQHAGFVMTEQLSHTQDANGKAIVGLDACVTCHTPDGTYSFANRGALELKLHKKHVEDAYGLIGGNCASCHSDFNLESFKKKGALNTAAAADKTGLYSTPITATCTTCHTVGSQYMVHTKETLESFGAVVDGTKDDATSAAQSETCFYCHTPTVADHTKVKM

T2 sequence (Q8EG34 entry or part of it C453S): as the sequence (Q8EG34 entry or part of it C453A) above, with A428S counted along it

Cc1cc2nc3c(=O)[nH]c(=O)nc-3n(C[C@H](O)[C@H](O)[C@H](O)COP(=O)(O)O)c2cc1C [FMN]
copurification through anaerobic PD10 size exclusion column, flavin fluorescence (MtrCsol (soluble MtrC) [1]): showing that MtrCC453Asol would form a similar FMN complex to MtrCsol in the presence of DTT
31P NMR titration of FMN (MtrCsol (soluble MtrC) [2]): signal of FMN upon exposure to oxidized MtrCC453Ssol was monitored
copurification through anaerobic PD10 size exclusion column, flavin fluorescence (MtrCsol (soluble MtrC) [3]): revealed copurification of FMN with MtrCC453Asol but not MtrCsol
